{
  "source": "patent US20030083266A1",
  "about": "(priority 2002, published 2003)",
  "key": {"[1]": {"system": "endogenous reduced glutathione (GSH)", "assay": "In vivo antioxidation: striatum/serum endogenous GSH after IP injection", "design": "species or system Balb/c mice", "conditions": "mice, injected IP, 100-300 mg/kg, three hours post injection", "procedure": "With reference now to FIG. 3. To this end, three groups of two months old Balb/c mice containing two animals in each group were injected intraperitonealy (IP) with 100-300 mg/kg body weight of compound A. Blood samples were drawn from the tail three hours post injection and then the animals were sacrificed and either the corpus striatum or the whole brain were removed and analyzed for GSH levels.\nGSH levels were determined using the experimental procedures as described hereinbelow and/or the GSH-400 kit (Oxis International, Inc.).\nPreparation of brain homogenates: Animals were rapidly killed and exsanguinated to remove excess blood from the brain. The brain of each animal was rinsed in a beaker containing water, lightly blotted to dry and were weighted. The striatums were transferred into a hand-homogenizer tube and each was homogenized using a constant number (e.g., 20) of up and down strokes of the hand-homogenizer pestle. Each of the homogenates was poured into a centrifuge tube and centrifuged for 10,000×g for 5 min. The supernatant was used for GSH determination as follows.\nGSH Assay: For each measurement, 200 μl of sample were incubated with 20 μl DTNB [5,5′ dithio bis(2-nitrobenzoic acid)] for 1 hour in 37° C. Final absorbance was measured at 400 nm. Similar results were obtained using the GSH-400 kit. […]"}, "PC12 cells [2]": {"system": "PC12 cells", "assay": "In vitro extracellular antioxidation: [3H]-thymidine uptake by PC12 cells under dopamine oxidative stress", "format": "cell-based", "conditions": "0.5 mM dopamine 24 hours", "procedure": "Compounds A-D were assayed in vitro for their extracellular antioxidant activities. The assays were carried out with PC12 cells (Offen et al., 1996) subjected to a high dose of dopamine which confers oxidative stress to these cells by forming oxidation products during its oxidation in the growth medium, i.e., extracellularly.\nWith reference now to FIG. 1. To this end, PC12 cells were subjected to high concentration of dopamine (0.5 mM) for 24 hours in the presence of increasing concentrations (0 mM, 0.03 mM, 0.1 mM, 0.3 mM and 0.9 mM) of the various compounds A-D. [^3H]-thymidine was added to the cells (1 μCi/100,000 cells) six hours before the end of the 24 hours period. Due to the high lipophylicity of compounds A-D, the compounds were first dissolved in dimethyl sulfoxide (DMSO) and then in water and were applied to the cells in a final concentration of 3% DMSO. The effect of 3% DMSO on the cells was tested separately and the values presented in FIG. 1 are after the appropriate corrections.\n[^3H]-thymidine uptake was measured in triplicate wells containing cells pretreated with dopamine alone and dopamine with each of compounds A-D at the concentrations as indicated above. The results presented in FIG. 1 show the mean of triplicate wells taken from three independent cell batches, wherein control represent cells treated only with 3% DMSO and is defined as 100% [^3H]-thymidine uptake (not shown)."}, "PC12 cells [3]": {"system": "PC12 cells", "assay": "In vitro intracellular antioxidation: [3H]-thymidine uptake by PC12 cells under 6-hydroxy-dopamine oxidative stress", "format": "cell-based", "conditions": "0.5 mM 6-hydroxy-dopamine 24 hour", "procedure": "One of the main characteristics of the oxidative effects in PC12 cells are mimicked by 6-hydroxy-dopamine which is a false neurotransmitter taken up by the cells. Therefore, 6-hydroxy-dopamine was used as another oxidative agent and tested the protective antioxidant efficiencies of compounds A-D within the cells.\nWith reference now to FIG. 2. To this end, PC12 cells were subjected to high concentration (0.5 mM) of 6-hydroxy-dopamine (6-HO-DA) for 24 hour, in the presence of 0.3 mM or 0.8 mM of compounds A-D or 1 mM of reduced glutathione (GSH) a natural antioxidant, as shown in the front row of FIG. 2. A similar set of cells was treated with the same concentrations of compounds A-D and of reduced glutathione, yet without 6-hydroxy-dopamine, as shown in the back row of FIG. 2. Due to the high lipophylicity of the antioxidants used, they were first dissolved in dimethyl sulfoxide (DMSO), then in water and were applied to the cells in a final concentration of 3% DMSO. [^3H]-thymidine was added to the cells (1 μCi/100,000 cells) six hours prior to the end of the 24 hour period.\nThe results presented in FIG. 2 are the mean of triplicate wells taken from three independent cell batches, wherein control represent untreated cells and is defined as 100% [^3H]-thymidine uptake. The effect of DMSO on the cells was tested separately as shown."}, "[4]": {"assay": "Crossing the blood-brain-barrier: compound level in brain extracts by HPLC after IP injection", "format": "in vivo, C57BL/6J mice", "conditions": "mice", "procedure": "Detection of compound j (referred to in this Example also as CEA) was established using high performance liquid chromatography (HPLC). To this end, CEA was treated with a fluorescent thiolyte reagent (monobromobimane reagent) and analyzed on an HPLC column.\nCrossing the blood-brain-barrier: In vivo experiments were carried out on C57BL/6J mice (15 grams) injected IP with compound J. After incubation (15 min, 60 min or 4 hours) the mice were anesthetized with ether and blood samples were drawn. Then mice underwent perfusion with 50 ml of saline, injected into the right ventricle. The levels of […] in the brain and in the plasma were detected by selective fluorescent labeling using high performance liquid chromatography (HPLC).\nIncreasing amounts of compound J were injected IP and 15 min later, mice were perfused with saline and compound J levels in the brain extracts were determined by HPLC chromatography (FIG. 5b), as compared to a control, pure, uninjected compound J (FIG. 5a)."}, "[5]": {"system": "Neuroblastoma SHSY5Y (NB) cells", "assay": "Protection from oxidative stress in vitro, neutral red survival assay", "format": "cell-based", "procedure": "Protection from oxidative stress in vitro: Neuroblastoma SHSY5Y (NB) cells were maintained in Dulbeco's Modified Eagle's Medium (DMEM), supplemented with 8% FCS and 8% horse serum, penicillin (25 μg/ml), streptomycin (25 μg/ml), 2 mM L-glutamine and 400 μg/ml G418 (Gibco/BRL). For protection experiments cells were subcultured (in 2% serum) to poly-L-lysine-coated 96-well microtiter plates (Nunc), 100 μl of 5×10^5 cells/ml, CEA was applied to the cells in each well and 4 hours later DA, L-dopa (levodopa), 6-OHDA and MPP+ were added for 24 hours.\nSurvival was assayed by adding neutral red (0.34%, Sigma) to cells in DCCM-1 medium (0.1 ml/well, Bet-Haemek) and incubation for 2 hour at 37° C. The cells were then washed with cold PBS containing 10 mM MgCl2 and the dye was dissolved in 50% ethanol in 50% Somerson buffer (70 mM sodium citrate, 30 mM citric acid, 0.1 N HCl). ELISA reader (590 nm) was used to measure the remaining color intensity."}, "GSH": {"system": "GSH", "assay": "Brain GSH levels after IP injection of compound J (HPLC)", "format": "in vivo, C57BL/6J mice", "conditions": "mice brain extract after IP injection"}},
  "data": [
    {"molecule": "CCOC(=O)[C@H](CS)NC(C)=O", "note": "[compound A, N-acetyl cysteine ethyl ester]", "values": [
      {"measurement": "Crossing of the blood brain barrier", "setting": "[1]", "result": "crosses the blood brain barrier"},
      {"measurement": "Level of endogenous GSH at the striatum", "setting": "[1]", "result": "increases the level of endogenous GSH"}
    ]},
    {"molecule": "CCOC(=O)C(NC(C)=O)C(C)(C)S", "note": "(stereo not shown) [compound B, N-acetyl-penicillamine ethyl ester]", "values": [
      {"measurement": "Increase of [3H]-thymidine uptake", "setting": "PC12 cells [2]; compound at 0.03 mM", "result": "Ca. 1.5"}
    ]},
    {"molecule": "CCOC(=O)CNC(=O)C(CS)NC(=O)CCC(N)C(=O)O", "note": "(stereo not shown) [compound D, Glutathione ethyl ester]", "values": [
      {"measurement": "Increase of [3H]-thymidine uptake of 6-hydroxy-dopamine treated cells", "setting": "PC12 cells [3]; compound at 0.3 mM", "result": "Ca. 3.5"},
      {"measurement": "Increase of [3H]-thymidine uptake of 6-hydroxy-dopamine treated cells", "setting": "PC12 cells [3]; compound at 0.8 mM", "result": "Ca. 3.5"},
      {"measurement": "Increase of [3H]-thymidine uptake", "setting": "PC12 cells [2]; compound at 0.03 mM", "result": "Ca. 2.5"},
      {"measurement": "Increase of [3H]-thymidine uptake", "setting": "PC12 cells [2]; compound at 0.1 mM", "result": "Ca. 2.5"}
    ]},
    {"molecule": "CC(=O)NC(CS)C(N)=O", "note": "(stereo not shown) [compound J]", "values": [
      {"measurement": "Compound level in the brain", "setting": "[4]; IP injection 0.25-4 mg, 15 min, brain extracts", "result": "concentration-dependent increase"},
      {"measurement": "Crossing of the BBB", "setting": "[4]; IP injection, fluorescent labeling and HPLC", "result": "crosses the BBB"},
      {"measurement": "Cell survival", "setting": "[5]; 0.3 mM compound, neutral red assays", "result": "up to 95%"},
      {"measurement": "Protection of cells against toxicity (>50%) of DA, L-dopa, 6-OHDA and MPP+", "setting": "[5]; compound at 0.1 mM, DA, L-dopa, 6-OHDA 0.1-0.25 mM, MPP+ 0.5-2 mM, 24 hours", "result": "protect the cells"},
      {"measurement": "Increase of GSH levels over untreated animals", "setting": "GSH", "result": "up to 46%"}
    ]},
    {"molecule": "CC(=O)N[C@H](C(=O)O)C(C)(C)S", "note": "[compound C, N-acetyl-β,β-dimethyl cysteine]", "values": [
      {"measurement": "Increase of [3H]-thymidine uptake of 6-hydroxy-dopamine treated cells", "setting": "PC12 cells [3]; compound at 0.3 mM", "result": "Ca. 1.5"}
    ]}
  ]
}
